# According to patent publication US8268789B2, “PAR-2 antagonists” (Kowa Company, Ltd., priority 2004, dated 2012):
# Like-named read-outs stand apart in the source and are kept apart here.
# Target: T1, PAR-2 (Homo sapiens, UniProt P55085)
# T1 construct: intracellular Ca^2+ level change by PAR-2 agonist in human keratinocytes expressing PAR-2; host or cells: primary human keratinocytes, passage 3 to 5
# T1 sequence (P55085 26-397): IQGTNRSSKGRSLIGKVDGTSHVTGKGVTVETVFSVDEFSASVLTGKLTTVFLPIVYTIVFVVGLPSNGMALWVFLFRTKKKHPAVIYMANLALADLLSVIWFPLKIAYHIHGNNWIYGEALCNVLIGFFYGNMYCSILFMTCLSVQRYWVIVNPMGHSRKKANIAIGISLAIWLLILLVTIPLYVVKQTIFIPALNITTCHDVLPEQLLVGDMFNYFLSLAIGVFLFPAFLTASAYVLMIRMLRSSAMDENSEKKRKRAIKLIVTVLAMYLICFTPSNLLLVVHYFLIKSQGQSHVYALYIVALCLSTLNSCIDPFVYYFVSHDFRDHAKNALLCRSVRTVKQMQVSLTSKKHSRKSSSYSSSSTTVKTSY
# Assay: Assay of intracellular Ca2+ level in human keratinocytes stimulated with PAR-2 agonist peptide
# Assay type: cell-based
# Conditions: for inhibition at 10 µg/mL: read-out: Inhibition Rate (%) (Means ± Standard Error, n = 3)
# Method: The keratinocytes were subjected to passage culture with trypsin/EDTA, and the cells whose passage number was 3 to 5 were used in the experiment.
# Flex Station Calcium assay kit 2, which is a fluorescent reagent kit for calcium assay, was purchased from Molecular Devices and used in reagent preparation according to an accompanying protocol. Probenecid, Calcium ionophore (A23187) was purchased from Sigma. The human keratinocytes were seeded at a density of 40,000 cells/well to a 96-well black-well clear-bottom plate (Corning) and cultured for 24 hours until the cells became subconfluent. After washing once with KBM, 80 μl KBM was added to each well. Subsequently, a fluorescent dye solution containing an equal volume of Probenecid at a final concentration of 2 mM (HBSS solution, pH 7.4) was added to each well and incubated at 37° C. for 1 hour. Thereafter, the plate was left for 15 minutes at room temperature and assayed at room temperature (25° C.). The test chemical and the stimulants were prepared by diluting KBM having 10-fold concentration of a final concentration respectively which were then added in a volume of 20 μL respectively for assay. Measurement was carried out with a fluorescent plate reader FlexStation (Molecular Devices) compatible with a 96-well plate equipped with an injector. The measurement through the bottom was carried out for 180 seconds at 2-second intervals at an excitation wavelength of 475 nm and at a measurement wavelength of 525 nm. The chemical was added 17 seconds after the measurement was initiated.
# [1] = compound final concentration 10 μg/mL, PAR-2 agonist SLIGKV 10 μM, cultured human keratinocytes, (1-AUCantagonist/AUCcontrol)×100 of time-fluorescence intensity curve
inhibition at 10 µg/mL [1],SMILES,"PAR-2 inhibitory action (inhibition of the agonist-induced increase in intracellular Ca2+ level), in words (compound final concentration 10 μg/mL, SLIGKV 10 μM, human keratinocytes, FIG. 1)",inhibition at 10 µg/mL
–,"NCCCC[C@H](NC(=O)CNC(=O)Nc1ccc2c(c1)c(CN1CCCC1)cn2Cc1c(Cl)cccc1Cl)C(=O)N[C@@H](Cc1ccccc1)C(=O)NC(c1ccccc1)c1ccccc1 [Example 10, [[N-[1-(2,6-dichlorophenyl)methyl]-3-(1-pyrrolidinylmethyl)-1H-indol-5-yl]aminocarbonyl]-glycine-L-lysine-L-phenylalanine-N-benzhydrylamide]",inhibition was recognized,58.4 ± 13%
32 ± 2.3%,"NCC[C@H](NC(=O)CNC(=O)Nc1ccc2c(c1)c(CN1CCCC1)cn2Cc1c(Cl)cccc1Cl)C(=O)N[C@@H](Cc1ccccc1)C(=O)NC(c1ccccc1)c1ccccc1 [Example 11, [[N-[1-(2,6-dichlorophenyl)methyl]-3-(1-pyrrolidinylmethyl)-1H-indol-5-yl]aminocarbonyl]-glycine-L-α,γ-diaminobutyrate-L-phenylalanine-N-benzhydrylamide]",–,–
52.2 ± 1.8%,"CN1CCN(Cc2cn(Cc3c(Cl)cccc3Cl)c3ccc(NC(=O)NCC(=O)N[C@@H](CCCCN)C(=O)N[C@@H](Cc4ccccc4)C(=O)NC(c4ccccc4)c4ccccc4)cc23)CC1 [Example 12, [[N-[1-(2,6-dichlorophenyl)methyl]-3-[1-(4-methylpiperazinyl)methyl]-1H-indol-5-yl]aminocarbonyl]-glycine-L-lysine-L-phenylalanine-N-benzhydrylamide]",–,–
33.6 ± 16.8%,"NCC[C@H](NC(=O)CNC(=O)Nc1ccc2c(c1)c(CN1CCCC1)cn2Cc1c(Cl)cccc1Cl)C(=O)N[C@@H](Cc1ccccc1)C(=O)NCc1ccccc1 [Example 20, [[N-[1-(2,6-dichlorophenyl)methyl]-3-(1-pyrrolidinylmethyl)-1H-indol-5-yl]aminocarbonyl]-glycine-L-α,γ-diaminobutyrate-L-phenylalanine-N-benzylamide]",–,–
14.2 ± 10%,"NCCCC[C@H](NC(=O)CNC(=O)Nc1ccc2c(c1)c(CN1CCCC1)cn2Cc1c(Cl)cccc1Cl)C(=O)N[C@@H](Cc1ccccc1)C(=O)NCc1ccccc1 [Example 21, [[N-[1-(2,6-dichlorophenyl)methyl]-3-(1-pyrrolidinylmethyl)-1H-indol-5-yl]aminocarbonyl]-glycine-L-lysine-L-phenylalanine-N-benzylamide]",–,–
15.1 ± 10.5%,"CC(C)n1ccc2cc(NC(=O)NCC(=O)N[C@@H](CCN)C(=O)N[C@@H](Cc3ccccc3)C(=O)NCc3ccccc3)ccc21 [Example 24, [[N-isopropyl-1H-indol-5-yl]aminocarbonyl]-glycine-L-α,γ-diaminobutyrate-L-phenylalanine-N-benzylamide]",–,–
